Read-outs that look alike come from different tables or passages of the source.
Experiment: Lewis acidity: reaction rate constant of CoTPP and oxygen in the presence of a Lewis acid
Type: physicochemical
Procedure: Acetonitrile (MeCN) containing cobalt tetraphenylporphyrin (CoTPP), saturated O2, and a substance to be measured for the Lewis acidity (which is, for example, a cation of metal or the like and is represented by M^n+ in the following reaction scheme (A)) in the following reaction scheme (A) is measured for a change in an ultraviolet-visible absorption spectrum at room temperature. From the obtained reaction rate constant (kcat), the ΔE value (eV) as an index of the Lewis acidity can be calculated. […] The Lewis acidity of an organic compound can also be estimated from an energy level of the lowest unoccupied molecular orbital (LUMO) calculated by quantum chemical calculation.
Examples of the reaction rate constant of CoTPP and oxygen in the presence of a Lewis acid, which is an index of the Lewis acidity measured (calculated) by the above measurement method, are shown below. In the following Table 1, numerical values represented by “kcat, M^−2s^−1” are CoTPP and oxygen in the presence of a Lewis acid. The 5 numerical value represented by “LUMO, eV” is an energy level of LUMO.

[1] = CoTPP and oxygen in MeCN, room temperature

Compound: Benzethonium chloride
- kcat [1]: 0.24 M^−2s^−1

Compound: CCCC[N+](CCCC)(CCCC)CCCC.F[P-](F)(F)(F)(F)F [Tetrabutylammonium hexafluorophosphate]
- kcat: >0.1 M^−2s^−1

Compound: Benzalkonium chloride
- kcat [1]: 0.18 M^−2s^−1
